In patent publication US9776972B2, “Pyrazole derivatives as arginine methyltransferase inhibitors and uses thereof” (priority 2013, dated 2017):

Molecular target: human PRMT3 (Homo sapiens, UniProt O60678)
Experiment: PRMT3 Biochemical Assay (3H-SAM Flashplate, peptide substrate)
Details: single experiment or average of multiple experiments
Description: S-adenosylmethionine (SAM), S-adenosylhomocysteine (SAH), bicine, Tween20, dimethylsulfoxide (DMSO), bovine skin gelatin (BSG), isopropyl-β-D-thiogalactopyranoside (IPTG), and Tris(2-carboxyethyl)phosphine hydrochloride solution (TCEP) were purchased from Sigma-Aldrich at the highest level of purity possible. ^3H-SAM was purchase from American Radiolabeled Chemicals with a specific activity of 80 Ci/mmol. 384-well streptavidin Flashplates were purchased from PerkinElmer.
Peptide containing the classic RMT substrate motif was synthesized with an N-terminal linker-affinity tag motif and a C-terminal amide cap by 21st Century Biochemicals. The peptide was purified by high-performance liquid chromatography (HPLC) to greater than 95% purity and confirmed by liquid chromatography mass spectrometry (LC-MS). The sequence was Biot-Ahx-[…]-amide (SEQ ID NO.:11).
Full-length human PRMT3 (NM_005788.3) isoform 1 transcript clone was amplified from an HEK 293 cDNA library and subcloned into pGEX-KG (GE Life Sciences). The resulting construct encodes an N-terminal GST tag and a thrombin cleavage sequence ([…] […] […] […]) (SEQ ID NO.: 12) fused directly to Cys 2 of PRMT3.
E. coli (BL21(DE3) Gold, Stratagene) made competent by the CaCl2 method were transformed with the PRMT3 construct and ampicillin selection. Protein over-expression was accomplished by growing the PRMT3 expressing E. coli clone and inducing expression with 0.3 mM IPTG at 16° C. The culture was grown for 12 hours, harvested by centrifugation, and stored at −80° C. for purification.
GST-tagged PRMT3 was eluted with 50 mM Tris, 2 mM glutathione, pH 7.1 and 50 mM Tris, 20 mM glutathione, pH 7.1. Pooled fractions were dialysed in 20 mM Tris, 50 mM NaCl, 5% glycerol, 1 mM EDTA, 1 mM DTT, pH7.5 (Buffer B) and applied to a Q Sepharose Fast Flow column. GST-tagged PRMT3 was eluted by 500 mM NaCl in buffer B. Pooled fractions were dialyzed in 25 mM phosphate buffer, 100 mM NaCl, 5% glycerol, 2 mM DTT, pH 6.8 (Buffer C) and loaded on to a ceramic hydroxyapatite column. GST-tagged PRMT3 eluted with 25-400 mM phosphate in buffer C. Protein was concentrated and buffer was exchanged to 20 mM Tris, 150 mM NaCl, 5% glycerol, 5 mM β-mercaptoethanol, pH7.8 by ultrafiltration. The purity of recovered protein was 70%.
General Procedure for PRMT3 Enzyme Assays on Peptide Substrates.
The assays were all performed in a buffer consisting of 20 mM Bicine (pH=7.6), 1 mM TCEP, 0.005% BSG, and 0.002% Tween 20, prepared on the day of use. Compounds in 100% DMSO (1 ul) were spotted into a polypropylene 384-well V-bottom plates (Greiner) using a Platemate Plus outfitted with a 384-channel head (Thermo Scientific). DMSO (1 ul) was added to Columns 11, 12, 23, 24, rows A-H for the maximum signal control and 1 ul of SAH, a known product and inhibitor of PRMT3, was added to columns 11, 12, 23, 24, rows I-P for the minimum signal control. A cocktail (40 ul) containing the PRMT3 enzyme was added by Multidrop Combi (Thermo-Fisher). The compounds were allowed to incubate with PRMT3 for 30 min at room temperature, then a cocktail (10 ul) containing SAM and peptide was added to initiate the reaction (final volume=51 ul). The final concentrations of the components were as follows: PRMT3 was 0.5 nM, ^3H-SAM was 100 nM, non-radiolabeled SAM was 1.8 uM, peptide was 330 nM, SAH in the minimum signal control wells was 1 mM, and the DMSO concentration was 2%. The assays were stopped by the addition of potassium chloride (10 ul) to a final concentration of 100 mM. 50 ul of the reaction in the 384-well polypropylene plate was then transferred to a 384-well Flashplate and the biotinylated peptides were allowed to bind to the streptavidin surface for at least 1 hour before being washed once with 0.1% Tween20 in a Biotek ELx405 plate washer. […]

Chain of human PRMT3 (O60678 with tags, fused parts or gaps): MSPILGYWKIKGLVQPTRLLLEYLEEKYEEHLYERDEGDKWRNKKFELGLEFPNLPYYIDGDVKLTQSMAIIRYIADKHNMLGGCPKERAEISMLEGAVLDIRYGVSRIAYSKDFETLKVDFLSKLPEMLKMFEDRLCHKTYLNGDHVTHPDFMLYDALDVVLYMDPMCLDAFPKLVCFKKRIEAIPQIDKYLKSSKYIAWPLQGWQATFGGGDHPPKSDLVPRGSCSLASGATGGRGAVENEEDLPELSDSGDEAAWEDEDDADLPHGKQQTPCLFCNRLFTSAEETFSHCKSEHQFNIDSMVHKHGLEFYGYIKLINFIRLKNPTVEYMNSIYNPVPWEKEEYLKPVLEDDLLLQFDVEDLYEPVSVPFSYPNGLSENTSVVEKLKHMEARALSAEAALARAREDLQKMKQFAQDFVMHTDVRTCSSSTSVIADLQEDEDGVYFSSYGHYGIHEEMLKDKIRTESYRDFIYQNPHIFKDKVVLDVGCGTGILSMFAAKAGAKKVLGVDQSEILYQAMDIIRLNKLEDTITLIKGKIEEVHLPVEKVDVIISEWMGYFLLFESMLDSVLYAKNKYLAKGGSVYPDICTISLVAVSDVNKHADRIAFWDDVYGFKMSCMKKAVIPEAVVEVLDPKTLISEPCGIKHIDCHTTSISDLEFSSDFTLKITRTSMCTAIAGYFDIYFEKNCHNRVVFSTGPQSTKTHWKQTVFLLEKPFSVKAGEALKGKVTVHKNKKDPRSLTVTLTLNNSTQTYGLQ

SMILES	IC50 [µM]
CNCCN(C)Cc1cnn(C2CC2)c1-c1ccc(F)cc1 [Compound 14]	23.3
CNCCN(C)Cc1cnn(C(C)C)c1-c1ccc(F)cc1 [Compound 16]	> 50
CNCCN(C)Cc1cn[nH]c1-c1ccc(C#N)cc1 [Compound 17]	2.79
CNCCN(C)Cc1cn[nH]c1-c1cc(F)cc(F)c1 [Compound 18]	7.43
CN(CCN)Cc1n[nH]cc1-c1ccc(C2CCOCC2)cc1 [Compound 145]	7.18
COc1ccc(-c2n[nH]cc2CN(C)CCN)c(Cl)c1 [Compound 146]	9
CN(CCN)Cc1c[nH]nc1-c1cccc(N(C)C)c1 [Compound 149]	9.02
Cc1cc(F)ccc1-c1n[nH]cc1CN(C)CCN [Compound 152]	9.63
COc1ccc(-c2n[nH]cc2CN(C)CCN)cc1 [Compound 153]	4.1
COc1ccc(-c2n[nH]cc2CN(C)CCN)c(C)c1 [Compound 155]	8.56
Cc1ccc(-c2n[nH]cc2CN(C)CCN)cc1 [Compound 162]	3.52
CCOc1ccc(-c2n[nH]cc2CN(C)CCN)cc1 [Compound 166]	3.45
COCCOc1ccc(-c2n[nH]cc2CN(C)CCN)cc1 [Compound 167]	3.74
CC(C)Cc1ccc(-c2c[nH]nc2CN(C)CCN)cc1 [Compound 170]	7.33
CN(CCN)Cc1c[nH]nc1-c1ccc(OCCN2CCOCC2)cc1 [Compound 172]	3.41
